Patent publication US20220265656A1, “COMBINATION THERAPIES WITH IRE1 SMALL MOLECULE INHIBITORS” (Cornell University, priority 2019, published 2022)

Test system: MDA-MB-231 tumors
Assay: MDA-MB-231 human triple negative breast carcinoma xenograft in athymic nude mice
Type: in vivo, mouse
Conditions: MDA-MB-231 xenograft mice, 24 hours after first dose and at endpoint/Day 29
Experimental: Tumor Cell Culture and Implantation: MDA-MB-231 cells were grown to mid-log phase in RPMI 1640 medium containing 10% fetal bovine serum, 2 mM glutamine, 100 units/mL sodium penicillin G, 25 μg/mL gentamicin, and 100 μg/mL streptomycin sulfate. The tumor cells were cultured in tissue culture flasks in a humidified incubator at 37° C., in an atmosphere of 5% CO2 and 95% air. The cells were harvested during exponential growth and resuspended in cold phosphate buffered saline (PBS). Each test animal was injected subcutaneously in the right flank with 5×10^6 MDA-MB-231 cells in a 0.1 mL cell suspension. Tumor growth was monitored as the average tumor size approached the target range of 100 to 150 mm^3. Tumors were measured in two dimensions using calipers, and volume was calculated using the formula:
where w=width and l=length in mm of a MDA-MB-231 tumor. […]
Endpoint and Tumor Growth Inhibition (TGI) Analysis: Tumors were measured using calipers twice a week for the study duration. […] The study ended on Day 29 and data from this day was analyzed to determine the MTV (n), the median tumor volume for the number of animals, n, on the final day (Day 29) for each group. […] Percent tumor growth inhibition (% TGI) was defined as the difference between the MTV of the designated control group (Group 1) and the MTV of the drug-treated group, expressed as a percentage of the MTV of the control; group: […]

- exposure (plasma compound levels): significantly higher with multi-dosing
Compound: COc1cc2c(C)c(CC(=O)N3CCOCC3)c(=O)oc2c(C=O)c1O [MKC-8866]
